Source: patent US10718769B2, “Compounds comprising one or more hydrophobic domains and a hydrophilic domain comprising peg moieties, useful for binding cells” (Roche Diagnostics Operations, Inc., priority 2013, dated 2020)
Where “and” joins values, the source holds several entries; their conditions need not be identical. Equal entries are not always repeated. Where two headings read alike, the source gives them in different places.

Assays:
[1] = system: Jurkat cells; conditions: centrifugation 20 min, 500×g; within 5.5 h incubation with molecule
Protocol: Respective columns from left: 1: 10 min incubation with molecule. 2: 1 h incubation with molecule. 3: 3,5 h incubation with molecule. 4: 5.5 h min incubation with molecule. Following molecules were tested: 1255: 3′-(Myristic acid)2-PEG2000-dT-Biotin-TEG-5′ INVERS. 1234: 5′-(Cholesteryl-TEG)2-Spacer C18-dT-Biotin-TEG-3′; 1248: 3′-(Cholesteryl-TEG)2-PEG2000-Fluos-Biotin-TEG-5′ INVERS; 1254: 3′-(Cholesteryl-TEG)2-SpacerC18-Fluos-Biotin-TEG-5′ INVERS. […] Centrifugation characteristics: 20 min, 500×g.
(§1) Following molecules were tested: • 1255: 3′-(Myristic acid)2-PEG2000-dT-Biotin-TEG-5′ INVERS • 1234: 5′-(Cholesteryl-TEG)2-Spacer C18-dT-Biotin-TEG-3′ • 1248: 3′-(Cholesteryl-TEG)2-PEG2000-Fluos-Biotin-TEG-5′ INVERS • 1254: 3′-(Cholesteryl-TEG)2-SpacerC18-Fluos-Biotin-TEG-5′ INVERS
Centrifugation characteristics: 20 min, 500×g.

[2] = system: WBC (white blood cells); conditions: for MW (mean WBC per well): target: 300.000 WBC
Protocol: 4× determination. Row A: 200 μl PBS introduced, 1 nmol of compound added thereto respectively, mixed, incubated about 30 min, washed 2×PBS, 800 μl PBS introduced, 300.000 WBC (untreated) added. Row B: 800 μl PBS introduced, 300.000 WBC (untreated) added. Row C: 10×10^6 WBC in 1 ml with 10 nmol compound of invention 10 min incubated, 800 μl PBS/Well introduced, 300.000 treated WBC respectively. The first MTP plate washed after 30 min 2× with PBS, overlayed with Höchst and incubated for 15 min.>Cellavista (Operator s9s5) measured. The second plate was measured after 90 min. The third plate was measured after 150 min.
The experiments were performed for different incubation times, as shown below:
As starting material 5′-(Cholesteryl-TEG)2-PEG2000-Fluos-Biotin_TEG-3′ INVERS
(14530 pmol/μl) (Internal Reference No.: 29.891250), and a streptavidin treated MTP (Microcoat), 12 Well plate were used.
Erythrocyte lysis was performed as follows:
EDTA-whole blood 59.423 6.400 WBC/μl (Ambulanz Roche)
lysis buffer: 100 mM NH4Cl+5 mM Hepes+0.5 mM KHCO3+0.1 mM EDTA-K
Ca 1×8 ml whole blood filled in 50 ml Falcon tube with lysis buffer, incubate at room temperature for 10 min
15 min at 250 g centrifugated, pellet resuspended by pipetting in and out in lysis buffer; filled to 50 ml with lysis buffer
15 min 250 g centrifugated, pellet resuspended with PBS, filled to 50 ml with PBS, 15 min 250 g centrifugated, filled to 50 ml with PBS
The design of the experiment on the plate is explained below (see FIG. 2):
3×12 Well MTP: Treatment of the WBC with compounds of the invention:
Row A: 200 μl PBS introduced, 1 nmol of compound added thereto respectively, mixed, incubated about 30 min, washed 2×PBS,
800 μl PBS introduced, 300.000 WBC (untreated) added.
Row B: 800 μl PBS introduced, 300.000 WBC (untreated) added.
Row C: 10×10^6 WBC in 1 ml with 10 nmol compound of invention 10 min incubated, 800 μl PBS/Well introduced, 300.000 treated WBC respectively.
The first MTP plate washed after 30 min 2× with PBS, overlaid with Höchst and incubated for 15 min.>Cellavista (Operator s9s5) measured.
The second plate was measured after 90 min.
The third plate was measured after 150 min.

[3] = system: WBC; assay: WBC recovery rate after centrifugation (stabilization of cells, Example 5); assay type: cell-based; conditions: centrifugation 10 min, 300×g
Protocol: (§2) Centrifugation characteristics: 10 min, 300×g.
as §2
The respective left, middle and right columns per assay represent different Experimenters 1, 2 and 3. […] Centrifugation characteristics: 10 min, 300×g. Molecule: Cholesteryl-TEG-Cholesteryl-TEG-(SpacerC18)7-Fluos-Biotin-TEG.
(§3) Following molecules were tested: 1234: 5′-(Cholesteryl-TEG)2-Spacer C18-dT-Biotin-TEG-3′; 1248: 3′-(Cholesteryl-TEG)2-PEG2000-Fluos-Biotin-TEG-5′ INVERS; 1254: 3′-(Cholesteryl-TEG)2-SpacerC18-Fluos-Biotin-TEG-5′ INVERS; 1255: 3′-(Myristic acid)2-PEG2000-dT-Biotin-TEG-5′ INVERS. […] Centrifugation characteristics: 20 min, 300×g. Respective left column: 10 min incubation with molecule. Respective middle column: 1 h min incubation with molecule. Respective right column: 2 h incubation with molecule.
Following molecules were tested: 1255: 3′-(Myristic acid)2-PEG2000-dT-Biotin-TEG-5′ INVERS; 1234: 5′-(Cholesteryl-TEG)2-Spacer C18-dT-Biotin-TEG-3′; 1248: 3′-(Cholesteryl-TEG)2-PEG2000-Fluos-Biotin-TEG-5′ INVERS; 1254: 3′-(Cholesteryl-TEG)2-SpacerC18-Fluos-Biotin-TEG-5′ INVERS. […] Centrifugation characteristics: 20 min, 500×g. Respective left column: 10 min incubation with molecule. Respective middle column: 1 h min incubation with molecule. Respective right column: 3 h incubation with molecule.
as §3, with “tested: 1255: 3′-(Myristic acid)2-PEG2000-dT-Biotin-TEG-5′ INVERS;” for “tested:”, “3′-(Cholesteryl-TEG)2-SpacerC18-Fluos-Biotin-TEG-5′” for “3′-(Cholesteryl-TEG)2-SpacerC18-Fluos-Biotin-TEG-5′ INVERS; 1255: 3′-(Myristic acid)2-PEG2000-dT-Biotin-TEG-5′”, “1000×g.” for “300×g.”
The effect of compounds of the invention on stabilizing cells and on immobilization was determined.
Centrifugation characteristics: 10 min, 300×g. A: Choleseryl-TEG-Cholesteryl-TEG-(SpacerC18)7-Fluos-Biotin-TEG.
Centrifugation characteristics: 10 min, 300×g. Molecule: Cholesteryl-TEG-Cholesteryl-TEG-(SpacerC18)7-Fluos-Biotin-TEG.
Centrifugation characteristics: 20 min, 300×g.
as §1

[4] = system: CHO; assay: Labelling of cells using compounds of the invention; assay type: cell-based
From the text: (§4) 2. Labelling of Cells Using Compounds of the Invention

[5] = system: Epithelial cells; assay: as above; assay type: cell-based
From the text: as §4

[6] = system: Hela; assay: as above; assay type: cell-based; conditions: * one cell stained weakly
From the text: as §4

[7] = system: WBCs; assay: as above; assay type: cell-based
From the text: as §4

[8] = system: MDA-MB468; assay: as above; assay type: cell-based
From the text: as §4

[9] = system: U937; assay: as above; assay type: cell-based
From the text: as §4

[10] = system: white blood cells (WBCs); conditions: for WBC per well: 300 000 WBCs/well
Protocol: Aim of this experiment: Testing of the white blood cell immobilization on a streptavidin-coated surface using different molecules of the invention. In particular, the performance of a single cholesterol-molecule and different dual-linker molecules (i.e. containing two hydrophobic moieties) was tested. In detail, immobilization of white blood cells (WBCs) on a Streptavidin-coated surface using different linker molecules was tested on a 12-well plate: 300 000 WBCs/well. This was followed by the measurement of the cell recovery rate after immobilization and washing of the cells using the Cellavista instrument (10× Nuclei Operator s9s5).

[11] = Sample 1, first block of the table (r4-r12), footnote: 1 nmol/10e6 WBCs
[12] = Sample 1, second block of the table (r13-r21), compound concentration: 1 nmol/10e6 WBCs
[13] = Sample 2, compound concentration: 100 pmol/10e6 WBCs
[14] = Sample 2, compound concentration: 1 nmol/10e6 WBCs

Molecule: 3′-(Cholesteryl-TEG)2-PEG2000-Fluos-Biotin-TEG-5′ INVERS [compound 1248]
- Stability of Jurkat culture cells during centrifugation [1]: stable during centrifugation processes

Molecule: 5′-(Cholesteryl-TEG)2-PEG2000-Fluos-Biotin_TEG-3′ INVERS [29.891250]
- Mean % / WBC recovery rate [%] ([2]; 30 min, WBC treated (molecule of invention + cells)): 77.28%
- MW (mean WBC per well) ([2]; 30 min, WBC treated): 231829.75
- Mean % / WBC recovery rate [%] ([2]; 30 min, Well treated (molecule of invention bound to surface)): 21.64%
- MW (mean WBC per well) ([2]; 30 min, Well treated): 64909
- Mean % / WBC recovery rate [%] ([2]; 90 min, WBC treated (molecule of invention + cells)): 83.12% and 83.1%
- MW (mean WBC per well) ([2]; 90 min, WBC treated): 249346.25
- Mean % / WBC recovery rate [%] ([2]; 90 min, Well treated (molecule of invention bound to surface)): 47.62% and 47.6%
- MW (mean WBC per well) ([2]; 90 min, Well treated): 142865
- Mean % / WBC recovery rate [%] ([2]; 120 min, WBC treated (molecule of invention + cells)): 86.23%
- MW (mean WBC per well) ([2]; 120 min, WBC treated): 258692.75
- Mean % / WBC recovery rate [%] ([2]; 120 min, Well treated (molecule of invention bound to surface)): 57.02%
- MW (mean WBC per well) ([2]; 120 min, Well treated): 171062.75

Molecule: Biotin-PEG-Lysin-(C18)2
- WBC recovery rate after centrifugation, dependence on concentration ([3]; listed as molecule B): The higher the molecule concentration, the higher the cell recovery rate after centrifugation

Molecule: CCCCCCCCCCCCC/C=C/[C@@H](O)[C@H](COP(=O)([O-])OCC[N+](C)(C)C)NC(=O)CCCCc1ccc2n1[B-](F)(F)[N+]1=C(C)C=C(C)C1=C2 [Sphingomyelin, N-(4,4-difluoro-5,7-dimethyl-4-bora-3a,4a-diaza-s-indacene-3-pentanoyl)sphingosyl phosphocholine]
- Labelling (staining) of CHO [4]: x very weak
- Labelling (staining) of Epithelial cells [5]: √
- Labelling (staining) of Hela [6]: √
- Labelling (staining) of WBCs [7]: (x)- very bad

Molecule: 5′-Cholesteryl-TEG-PEG2000-Fluos-3′ [BMO 29.891132]
- Labelling (staining) of Epithelial cells [5]: √
- Labelling (staining) of MDA-MB468 [8]: √
- Labelling (staining) of U937 [9]: √
- Labelling (staining) of WBCs [7]: √ not all

Molecule: 5′-alphaTocopherolTEG-PEG2000-Fluos-3′ [BMO 29.891131]
- Labelling (staining) of Epithelial cells [5]: √
- Labelling (staining) of MDA-MB468 [8]: √
- Labelling (staining) of U937 [9]: √
- Labelling (staining) of WBCs [7]: √ not all

Molecule: Sulfo-JA133-phenylboronic acid [BMO: 15.000078]
- Labelling (staining) of Epithelial cells [5]: √
- Labelling (staining) of WBCs [7]: √ not all

Molecule: 5′-(Cholesterol-TEG)1-Doubler-dT-Biotin-3′ [29.891272]
- WBC per well [10, 11]: 147132 and 179643 and 181620
- WBC per well [10, 12]: 199973 and 220701 and 228481
- Mean (WBC per well) [10, 13]: 186316.33
- WBC per well [10, 13]: 161504 and 201424 and 196021
- Mean (WBC per well) [10, 14]: 247418.33
- WBC per well [10, 14]: 241232 and 254894 and 246129

Molecule: 5′-(Cholesteryl-TEG)2-Spacer C12-dT-Biotin_TEG-3′ INVERS [29.891253]
- WBC per well [10, 11]: 105061 and 128195 and 139678
- WBC per well [10, 12]: 218861 and 221471 and 208802
- Mean (WBC per well) [10, 13]: 187757.67
- WBC per well [10, 13]: 178919 and 197130 and 187224
- Mean (WBC per well) [10, 14]: 237052.33
- WBC per well [10, 14]: 239105 and 240632 and 231420

Molecule: 5′-CholesterylTEG-CholesterylTEG-(SpacerC18)7-Fluos-BiotinTEG-3′ [BMO 29.891222_Ch03]
- WBC recovery rate after centrifugation, dependence on concentration [3]: The higher the molecule concentration, the higher the cell recovery rate after centrifugation
- Cell stabilization with different experimenters ([3]; Experimenters 1, 2 and 3): cell stabilization is independent on the experimenter
- WBC recovery rate after centrifugation, dependence on concentration ([3]; listed as molecule A): The higher the molecule concentration, the higher the cell recovery rate after centrifugation

Molecule: CCCCCCCCCCCCCCCC(=O)OC[C@H](COP(=O)(O)OCCNC(=O)CCc1ccc2n1[B-](F)(F)[N+]1=C(C)C=C(C)C1=C2)OC(=O)CCCCCCCCCCCCCCC.CCN(CC)CC [Phosphatidylethanolamine, N-(4,4-difluoro-5,7-dimethyl-4-bora-3a,4a-diaza-s-indacene-3-propionyl)-1,2-dihexadecanoyl-sn-glycero-3-phosphoethanolamine, triethylammonium salt]
- Labelling (staining) of Hela [6]: x/√ very weak
